Measured values: patent US9364448B2, “Nitisinone for treatment of oculocutaneous/ocular albinism and for increasing pigmentation” (The United States of America, as represented by the …, priority 2010, dated 2016)

Target: T1, H420R mouse tyrosinase (Mus musculus, UniProt P11344, H420R)
T1 construct: expressed in transfected cells; host or cells: CHO cells, pcDNA3.1
T1 sequence (P11344 19-533 H420R): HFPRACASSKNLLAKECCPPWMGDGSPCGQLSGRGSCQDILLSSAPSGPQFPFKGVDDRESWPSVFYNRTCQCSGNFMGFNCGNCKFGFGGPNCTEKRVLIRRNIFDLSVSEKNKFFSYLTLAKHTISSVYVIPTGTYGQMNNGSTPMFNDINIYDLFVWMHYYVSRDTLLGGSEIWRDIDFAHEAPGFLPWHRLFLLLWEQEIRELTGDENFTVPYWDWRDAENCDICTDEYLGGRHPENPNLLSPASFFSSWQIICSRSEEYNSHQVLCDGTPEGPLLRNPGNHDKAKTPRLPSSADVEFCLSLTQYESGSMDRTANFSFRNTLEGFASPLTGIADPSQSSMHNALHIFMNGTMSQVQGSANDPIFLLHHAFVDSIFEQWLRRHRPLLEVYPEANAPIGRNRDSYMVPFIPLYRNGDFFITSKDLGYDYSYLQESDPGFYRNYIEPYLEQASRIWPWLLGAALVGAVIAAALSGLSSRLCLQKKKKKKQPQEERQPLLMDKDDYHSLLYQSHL
Experiment: Tyrosinase protein stability in CHO cells with cycloheximide, H420R
Assay type: cell-based
Details: 1 mM tyrosine, later time points (9 and 24 hours)
Method: In Vitro Expression and Enzyme Activity. The expression construct of mouse Tyr was a kind gift of Dr. C. Olivares from the School of Medicine of the University of Murcia (Spain). This construct was prepared in the pcDNA3.1 expression vector (Invitrogen, Carlsbad, Calif.) using EcoRI/XbaI restriction sites and based on the mouse Tyr clone obtained as described previously in C. Olivares, et al., Biochem. J., 354:131 (2001). Constructs of tyrosinase gene mutant variants, with changes corresponding to missense mutations R77L and H420R in the mouse tyrosinase protein sequence, were created using standard methodologies (Mutagenex Inc., Piscataway, N.J.). […]
Chinese hamster ovary cells (CHO) (generous gift from Dr. J. T. Wroblewski from the Pharmacology Department, Georgetown University Medical Center, Washington D.C.) were grown at a temperature of about 37° C. in DMEM media, in the presence of 10% fetal bovine serum, 1% penicillin and 4.5 g […] per 0.5 liter of media. […] The total protein content in protein lysates was determined spectrophotometrically as a 280/260 ratio. Protein expression was analyzed by Western blotting, and GAPDH was used as an internal loading control. For the analysis, Western blots were scanned, intensities of protein bands were determined, and ratios of band intensities for the wild type or mutant variants, to that of GAPDH were calculated. […]

For N[C@@H](Cc1ccc(O)cc1)C(=O)O [tyrosine], the “Stability of H420R mutant tyrosinase protein relative to GAPDH” value was “improved the stability”.
